The values that follow come from paper PMC8216263 (Pharmaceutical Biology, 2021).

In data set [1] the target is T1, BCRP (Homo sapiens, UniProt Q9UNQ0).
T1 sequence (Q9UNQ0 1-655): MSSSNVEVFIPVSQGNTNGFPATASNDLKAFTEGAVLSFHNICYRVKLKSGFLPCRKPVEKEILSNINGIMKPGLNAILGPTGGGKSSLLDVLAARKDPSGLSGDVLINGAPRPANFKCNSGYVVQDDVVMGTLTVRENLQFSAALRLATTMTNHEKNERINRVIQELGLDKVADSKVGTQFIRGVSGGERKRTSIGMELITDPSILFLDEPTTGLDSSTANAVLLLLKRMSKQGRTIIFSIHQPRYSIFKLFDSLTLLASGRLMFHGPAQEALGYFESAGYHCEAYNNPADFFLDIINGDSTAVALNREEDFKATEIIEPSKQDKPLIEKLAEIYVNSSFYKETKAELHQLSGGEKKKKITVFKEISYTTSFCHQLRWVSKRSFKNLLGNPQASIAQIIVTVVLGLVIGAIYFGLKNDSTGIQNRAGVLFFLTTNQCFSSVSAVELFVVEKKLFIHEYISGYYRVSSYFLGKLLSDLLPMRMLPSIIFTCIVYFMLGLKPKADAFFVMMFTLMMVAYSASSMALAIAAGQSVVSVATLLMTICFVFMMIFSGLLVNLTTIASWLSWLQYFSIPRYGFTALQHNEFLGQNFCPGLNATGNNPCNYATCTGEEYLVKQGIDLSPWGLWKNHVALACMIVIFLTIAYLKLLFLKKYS
Briefly: Inhibition of BCRP-mediated lucifer yellow efflux in MDCK-BCRP cells. In kind it is cell-based. To be noted: for inhibitory effect on efflux of BCRP-mediated lucifer yellow: GA 50–5000 μg/L, PCA 10–1000 μg/L. The source says: The human multidrug resistance protein (MDR)1-transfected Madin–Darby Canine Kidney (MDCK) cells, human breast cancer resistance protein (BCRP)-transfected MDCK cells, human organic anion transporter (OAT)1-transfected MDCK cells, OAT3-transfected second portion of proximal tubule (S2) cells, human organic cation transporter (OCT)2-transfected S2 cells, human organic anion transporting polypeptide (OATP)1B1-transfected human embryonic kidney 293 (HEK293) cells and their MOCK cells were kindly provided by Japan Fuji Biomedical Co., Ltd. (Osaka, Japan). Cells were cultured in DMEM supplemented with 10% FBS, 100 units/mL penicillin and 100 […]. All cells were incubated in a humidified atmosphere of 95% air and 5% CO2 at 37 °C. A solution of 0.25% trypsin-EDTA was used to detach the cells from flasks. Cell culture flasks, 24-well cell culture plates, and transwell polycarbonate inserts (12 mm diameter, 0.4 μm pore size) were purchased from Corning Co-star Corp. (Bedford, MA).
Inhibitory effects of GA and PCA on efflux transporters MDR1 and BCRP were investigated with the fluorogenic substrates rhodamine 123 (10 µM) and lucifer yellow (10 µM), respectively. The positive control inhibitors of MDR1 and BCRP were verapamil (10 µM) and cyclosporine (20 µM), respectively. The efflux experiments were adapted from previously reported methods with minor modifications (Reznicek et al. [2017]). Briefly, MDCK-MDR1, MDCK-BCRP and MDCK-mock cells were trypsinized and uniformly suspended in the designated volume of HBSS to provide a density of 4.0 × 10^5 cells/mL. For 0.5 mL of cell suspension and 1.5 mL of HBSS buffer medium were added in the apical and basolateral compartments of 12-well Transwell plates. After cultivation for 7 d, cells were washed twice and equilibrated for 30 min at 37 °C with the pre-warmed HBSS buffer. […] Fluorescence was measured at 485 nm (excitation) and 546 nm (emission) for rhodamine 123, and 425 nm (excitation) and 528 nm (emission) for Lucifer yellow. […]

The nature of data set [2]: Stability of GA and PCA in quality control samples (biological matrix). In kind it is physicochemical, human. To be noted: for Long-term Stability: 3 months at −80 °C; for Post-preparative Stability: 24 h at 4 °C, n = 3; for Bench-top Stability: 24 h at 25 °C. As for the experimental part: The analytical method’s validation was conducted according to the FDA’s Bio-analytical Method Validation guidance (USFDA [2018]). Blank samples were obtained from six subjects for selectivity. The calibration curves were assessed by plotting the peak response ratio against the nominal concentrations of GA (1.00, 2.00, 10.0, 40.0, 100, 200, 320 and 400 μg/L) and PCA (0.50, 1.00, 5.00, 20.0, 50.0, 100, 160 and 200 μg/L). The low, medium and high QC concentrations were 3.00, 60.0 and 300 μg/L and 1.50, 30.0 and 150 μg/L for GA and PCA, respectively. Intra- and inter-day accuracy and precision were measured using six replicates of QCs in three separate batches. QCs’ acceptance criteria were ± 15% SD of nominal values, and the precision was ± 15% RSD, except for LLOQ ± 20% SD. The matrix effect and recovery were investigated using six lots of blank matrix from individual sources. Stability was assessed by spiking low and high QCs in blank samples using four conditions: for post-preparative stability (24 h at 4 °C), bench-top stability (24 h at 25 °C), long-term stability (3 months at −80 °C) and freeze-thaw stability (for three cycles).

The mark [3] stands for this setting: high QC (GA 300.0, PCA 150.0 μg/L).
The mark [4] stands for this setting: low QC (GA 3.00, PCA 1.50 μg/L).

On to `O=C(O)c1cc(O)c(O)c(O)c1` [GA, gallic acid], for which the “inhibitory effect on efflux of BCRP-mediated lucifer yellow” value in data set [1] is given as “no significant inhibitory effect”. In data set [2] (setting [3]), the “Long-term Stability” value turned out to be 93.68%, the “Post-preparative Stability” value stood at 94.37%, the “Bench-top Stability” value was 94.81% and the “Three freeze-thaw cycles Stability” value is recorded as 93.17%. Besides, in data set [2] (setting [4]), the “Long-term Stability” value was found to be 99.70%, the “Post-preparative Stability” value was found to be 88.48%, the “Bench-top Stability” value stood at 98.11% and the “Three freeze-thaw cycles Stability” value was 85.89%.
With `O=C(O)c1ccc(O)c(O)c1` [PCA, protocatechuic acid], the “inhibitory effect on efflux of BCRP-mediated lucifer yellow” value in data set [1] is reported as “no significant inhibitory effect”. Also, in data set [1] (relatively high concentrations), the “efflux of lucifer yellow compared with the control” value is reported as “significant increase”. For the same molecule, in data set [2] (setting [3]), the “Long-term Stability” value is 93.67%, the “Post-preparative Stability” value was 96.93%, the “Bench-top Stability” value is reported as 95.44% and the “Three freeze-thaw cycles Stability” value was determined as 94.22%. Further, in data set [2] (setting [4]), the “Long-term Stability” value is recorded as 99.04%, the “Post-preparative Stability” value is on record as 90.60%, the “Bench-top Stability” value was 97.69% and the “Three freeze-thaw cycles Stability” value is listed as 87.22%.
